23 targets from the supplement of paper PMC12463676, “Small-molecule dissolution of stress granules by redox modulation benefits ALS models” (Nature Chemical Biology, 2025) can be followed below.

Compound in one assay: NC(=O)CCCCC1CCSS1 [lipoamide]
As to the kind of experiment: thermal stability z-score vs DMSO; higher = more thermally stabilized by treatment. The following applies: HeLa, lipoamide concentration 100 µM. Here is the method:
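Cellular thermal proteome profiling in HeLa cells. Cells were treated with 100 µM lipoamide for 1 h, with or without 1 mM arsenate for a further 1 h, then heated to ten temperatures (37-66.3 °C), and soluble protein was quantified by TMT mass spectrometry relative to 0.1% DMSO controls. The thermal stability score (sum of log2 fold changes minus the abundance score) was transformed to a z-score; mean of n = 3 experiments.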

Compound in the next assay: O=[As]([O-])(O)O.[K+] [potassium arsenate]
Described as above. The note with it: HeLa; arsenate concentration 1 mM. Here is the method: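 Cellular thermal proteome profiling in HeLa cells treated with 1 mM arsenate for 1 h (DMSO pretreatment), heated to ten temperatures (37-66.3 °C). Soluble protein was quantified by TMT mass spectrometry relative to DMSO controls; the thermal stability score was transformed to a z-score; mean of n = 3 experiments.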

Setting [1] is: arsenate co-treatment: 1 mM arsenate 1 h.
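Note: each temperature applied for 3 min, abundance score taken as mean log2 fold change at the two lowest temperatures, z-score obtained by mean subtraction and division by SD.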

Sequence of UniProt P31040 (P31040 whole entry): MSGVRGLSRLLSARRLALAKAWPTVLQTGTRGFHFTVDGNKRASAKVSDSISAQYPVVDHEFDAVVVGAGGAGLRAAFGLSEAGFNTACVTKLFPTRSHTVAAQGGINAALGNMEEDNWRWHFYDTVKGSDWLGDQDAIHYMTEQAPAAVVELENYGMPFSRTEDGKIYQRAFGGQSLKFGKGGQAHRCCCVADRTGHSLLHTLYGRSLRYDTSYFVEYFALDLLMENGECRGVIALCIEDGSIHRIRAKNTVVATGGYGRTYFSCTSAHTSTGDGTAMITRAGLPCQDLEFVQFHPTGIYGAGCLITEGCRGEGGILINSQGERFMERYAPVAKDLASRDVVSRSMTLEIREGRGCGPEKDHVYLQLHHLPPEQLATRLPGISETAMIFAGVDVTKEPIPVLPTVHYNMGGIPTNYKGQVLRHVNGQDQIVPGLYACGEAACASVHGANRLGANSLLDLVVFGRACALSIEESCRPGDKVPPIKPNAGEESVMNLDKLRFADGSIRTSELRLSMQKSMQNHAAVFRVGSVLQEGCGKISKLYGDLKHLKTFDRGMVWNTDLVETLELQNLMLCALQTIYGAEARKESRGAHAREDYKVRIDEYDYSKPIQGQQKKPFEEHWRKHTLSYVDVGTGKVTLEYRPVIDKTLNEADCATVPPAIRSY
Sequence of UniProt P18031 (P18031 whole entry): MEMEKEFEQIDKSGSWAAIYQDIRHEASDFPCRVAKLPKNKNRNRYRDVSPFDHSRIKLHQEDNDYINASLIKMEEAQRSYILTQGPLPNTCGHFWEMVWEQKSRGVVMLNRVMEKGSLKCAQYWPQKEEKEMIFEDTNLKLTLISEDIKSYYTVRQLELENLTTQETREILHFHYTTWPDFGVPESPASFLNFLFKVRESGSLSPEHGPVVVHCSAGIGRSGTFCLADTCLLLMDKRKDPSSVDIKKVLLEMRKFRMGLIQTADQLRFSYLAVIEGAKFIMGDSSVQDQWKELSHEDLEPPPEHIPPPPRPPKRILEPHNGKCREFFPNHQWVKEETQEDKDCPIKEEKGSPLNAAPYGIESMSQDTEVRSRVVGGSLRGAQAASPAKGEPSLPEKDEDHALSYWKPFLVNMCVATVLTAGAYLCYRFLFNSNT
Sequence of UniProt Q13043 (Q13043 whole entry): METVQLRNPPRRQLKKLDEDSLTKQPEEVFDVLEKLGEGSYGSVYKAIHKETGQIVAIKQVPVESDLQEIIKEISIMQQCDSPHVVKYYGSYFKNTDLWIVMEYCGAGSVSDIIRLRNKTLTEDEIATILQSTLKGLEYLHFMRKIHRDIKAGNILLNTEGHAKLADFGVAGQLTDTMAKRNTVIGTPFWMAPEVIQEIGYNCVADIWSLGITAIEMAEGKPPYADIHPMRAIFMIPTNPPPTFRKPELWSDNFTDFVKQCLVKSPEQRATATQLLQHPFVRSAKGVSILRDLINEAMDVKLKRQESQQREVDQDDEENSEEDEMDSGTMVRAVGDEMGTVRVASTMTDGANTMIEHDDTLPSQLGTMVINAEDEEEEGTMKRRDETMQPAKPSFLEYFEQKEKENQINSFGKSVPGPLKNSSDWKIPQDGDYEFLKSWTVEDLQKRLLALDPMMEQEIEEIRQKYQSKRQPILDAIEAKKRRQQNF
Sequence of UniProt Q15436 (Q15436 whole entry): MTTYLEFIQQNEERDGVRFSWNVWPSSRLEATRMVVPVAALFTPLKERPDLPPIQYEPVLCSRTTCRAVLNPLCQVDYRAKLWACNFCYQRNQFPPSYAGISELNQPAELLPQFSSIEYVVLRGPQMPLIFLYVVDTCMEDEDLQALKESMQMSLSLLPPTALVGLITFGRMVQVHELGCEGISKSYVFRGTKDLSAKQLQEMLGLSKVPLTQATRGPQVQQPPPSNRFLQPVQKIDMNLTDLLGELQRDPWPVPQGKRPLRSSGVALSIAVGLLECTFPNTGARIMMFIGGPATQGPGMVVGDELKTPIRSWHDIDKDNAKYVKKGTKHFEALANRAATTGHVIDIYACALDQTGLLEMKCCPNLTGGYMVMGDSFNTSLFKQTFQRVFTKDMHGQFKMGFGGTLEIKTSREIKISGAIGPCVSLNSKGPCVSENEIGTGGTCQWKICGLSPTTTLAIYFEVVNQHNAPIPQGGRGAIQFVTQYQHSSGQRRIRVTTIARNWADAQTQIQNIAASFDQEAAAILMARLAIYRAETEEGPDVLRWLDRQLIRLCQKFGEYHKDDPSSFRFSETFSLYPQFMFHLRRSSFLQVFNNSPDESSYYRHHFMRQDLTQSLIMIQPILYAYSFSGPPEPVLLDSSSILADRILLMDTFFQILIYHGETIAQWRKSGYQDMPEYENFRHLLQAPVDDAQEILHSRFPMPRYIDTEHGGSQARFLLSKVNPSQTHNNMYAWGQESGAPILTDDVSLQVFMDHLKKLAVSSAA
Sequence of UniProt P55884 (P55884 whole entry): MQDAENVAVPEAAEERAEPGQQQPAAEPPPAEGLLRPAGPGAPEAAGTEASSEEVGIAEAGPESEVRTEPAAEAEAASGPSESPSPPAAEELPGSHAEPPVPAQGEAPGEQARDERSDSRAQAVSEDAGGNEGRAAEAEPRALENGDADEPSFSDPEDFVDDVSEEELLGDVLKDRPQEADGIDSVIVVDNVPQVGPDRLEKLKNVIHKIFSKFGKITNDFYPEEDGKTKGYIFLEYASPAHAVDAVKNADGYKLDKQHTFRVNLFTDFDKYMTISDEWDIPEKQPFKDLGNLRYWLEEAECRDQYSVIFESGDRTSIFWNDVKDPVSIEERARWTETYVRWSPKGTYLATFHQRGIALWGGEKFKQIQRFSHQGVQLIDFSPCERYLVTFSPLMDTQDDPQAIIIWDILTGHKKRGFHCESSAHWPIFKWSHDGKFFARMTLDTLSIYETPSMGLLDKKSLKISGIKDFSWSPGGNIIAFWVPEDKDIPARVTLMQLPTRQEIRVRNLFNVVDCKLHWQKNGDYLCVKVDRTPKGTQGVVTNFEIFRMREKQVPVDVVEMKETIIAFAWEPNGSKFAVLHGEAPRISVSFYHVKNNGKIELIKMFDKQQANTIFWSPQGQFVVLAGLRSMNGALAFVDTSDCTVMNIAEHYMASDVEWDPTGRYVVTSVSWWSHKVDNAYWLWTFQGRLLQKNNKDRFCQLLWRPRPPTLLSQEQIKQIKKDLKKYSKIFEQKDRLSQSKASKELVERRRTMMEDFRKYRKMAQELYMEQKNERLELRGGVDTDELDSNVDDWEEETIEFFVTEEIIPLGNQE
Sequence of UniProt P15559 (P15559 whole entry): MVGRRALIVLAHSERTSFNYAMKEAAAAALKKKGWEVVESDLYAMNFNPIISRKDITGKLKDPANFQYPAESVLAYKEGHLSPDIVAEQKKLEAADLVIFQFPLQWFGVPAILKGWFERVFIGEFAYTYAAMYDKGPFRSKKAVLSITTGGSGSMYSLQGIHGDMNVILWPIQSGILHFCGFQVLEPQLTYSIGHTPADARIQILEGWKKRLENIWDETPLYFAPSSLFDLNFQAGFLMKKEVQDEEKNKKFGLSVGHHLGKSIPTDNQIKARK
Sequence of UniProt Q86XZ4 (Q86XZ4 whole entry): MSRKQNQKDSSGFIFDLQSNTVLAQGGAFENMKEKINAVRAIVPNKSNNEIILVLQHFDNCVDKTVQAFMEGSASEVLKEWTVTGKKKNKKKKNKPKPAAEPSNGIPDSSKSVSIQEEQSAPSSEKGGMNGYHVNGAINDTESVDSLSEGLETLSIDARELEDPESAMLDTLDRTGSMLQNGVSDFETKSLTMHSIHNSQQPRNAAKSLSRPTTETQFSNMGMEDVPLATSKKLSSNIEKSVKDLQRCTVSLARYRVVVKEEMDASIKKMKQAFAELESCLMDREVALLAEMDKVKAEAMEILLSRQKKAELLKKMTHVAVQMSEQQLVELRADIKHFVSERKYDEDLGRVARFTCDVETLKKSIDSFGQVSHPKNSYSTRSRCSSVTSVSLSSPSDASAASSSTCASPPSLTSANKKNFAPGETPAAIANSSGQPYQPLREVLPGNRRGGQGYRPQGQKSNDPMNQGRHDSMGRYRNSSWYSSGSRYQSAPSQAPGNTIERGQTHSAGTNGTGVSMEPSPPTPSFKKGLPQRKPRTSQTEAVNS
Sequence of UniProt O14562 (O14562 whole entry): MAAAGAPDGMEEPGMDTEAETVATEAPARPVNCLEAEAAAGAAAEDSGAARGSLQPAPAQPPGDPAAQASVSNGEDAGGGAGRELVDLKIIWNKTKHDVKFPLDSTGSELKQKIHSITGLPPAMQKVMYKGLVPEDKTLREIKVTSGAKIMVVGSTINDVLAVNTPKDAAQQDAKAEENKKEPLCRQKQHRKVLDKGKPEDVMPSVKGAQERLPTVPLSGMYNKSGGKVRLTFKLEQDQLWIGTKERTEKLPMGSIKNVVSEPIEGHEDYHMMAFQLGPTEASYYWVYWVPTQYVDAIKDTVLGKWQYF
Sequence of UniProt Q05519 (Q05519 whole entry): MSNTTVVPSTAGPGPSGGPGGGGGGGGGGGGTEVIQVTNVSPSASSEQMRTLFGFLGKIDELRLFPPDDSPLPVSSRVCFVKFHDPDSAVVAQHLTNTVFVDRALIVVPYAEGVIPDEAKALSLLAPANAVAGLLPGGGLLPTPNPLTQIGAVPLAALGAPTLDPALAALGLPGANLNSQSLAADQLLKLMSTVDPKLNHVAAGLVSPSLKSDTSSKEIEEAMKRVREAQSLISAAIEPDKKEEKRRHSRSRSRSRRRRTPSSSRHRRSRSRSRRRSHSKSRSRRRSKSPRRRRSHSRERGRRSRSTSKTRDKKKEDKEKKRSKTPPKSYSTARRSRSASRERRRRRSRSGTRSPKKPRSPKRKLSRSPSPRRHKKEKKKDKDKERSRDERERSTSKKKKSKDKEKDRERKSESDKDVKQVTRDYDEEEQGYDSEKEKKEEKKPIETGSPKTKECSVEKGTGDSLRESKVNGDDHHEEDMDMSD
Sequence of UniProt Q8WW01 (Q8WW01 whole entry): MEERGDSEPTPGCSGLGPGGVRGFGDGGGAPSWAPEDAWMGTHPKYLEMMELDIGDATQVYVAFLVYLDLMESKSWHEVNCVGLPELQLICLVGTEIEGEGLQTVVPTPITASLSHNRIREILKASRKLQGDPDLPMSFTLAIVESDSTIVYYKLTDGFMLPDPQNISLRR

In the case of EIF3B (UniProt P55884), the thermal stability z-score is -0.333 with lipoamide (setting [1]), 0.0629 with lipoamide (arsenate co-treatment: none) and 0.472 with potassium arsenate.
On to SRSF11 (UniProt Q05519), for which the thermal stability z-score worked out at 0.00966 with lipoamide (setting [1]), 0.41 with lipoamide (arsenate co-treatment: none) and 0.0211 with potassium arsenate.
In the same order, the values of SEC23A (UniProt Q15436) are -0.106, 0.228 and -0.0157.
In the case of NQO1 (UniProt P15559), the thermal stability z-score in the assay with lipoamide (setting [1]) is 0.825; in the assay with lipoamide (arsenate co-treatment: none), 0.331; with potassium arsenate, 0.174.
In the same order, the values of COMMD4 (UniProt Q9H0A8) are -0.113, -0.32 and -0.322.
With TPBG (UniProt Q13641), the thermal stability z-score with lipoamide (setting [1]) was -0.727; with lipoamide (arsenate co-treatment: none) it was -0.884; with potassium arsenate, -0.766.
For the target PTPN1 (UniProt P18031), the thermal stability z-score with lipoamide (setting [1]) was -1.02; with lipoamide (arsenate co-treatment: none), -0.578; with potassium arsenate, 0.228.
As to TSEN15 (UniProt Q8WW01), the thermal stability z-score with lipoamide (setting [1]) is -0.438; in the assay with lipoamide (arsenate co-treatment: none), -0.0314; with potassium arsenate, 0.473.
For the target TXNDC12 (UniProt O95881), the thermal stability z-score is -1.11 in the assay with lipoamide (setting [1]), -1.37 with lipoamide (arsenate co-treatment: none) and 0.744 with potassium arsenate.
The matching figures for UBFD1 (UniProt O14562): -0.0131, -0.0151 and 0.066.
In the same order, the values of STK4 (UniProt Q13043) are 0.0921, -0.0308 and -0.188.
The matching figures for SPATS2 (UniProt Q86XZ4): -0.0725, 0.644 and -0.00843.
Take SDHA (UniProt P31040): the thermal stability z-score with lipoamide (setting [1]) was -0.493; with lipoamide (arsenate co-treatment: none), -0.532; with potassium arsenate, -1.17.
NOC2L (UniProt Q9Y3T9): the thermal stability z-score turned out to be 0.154 with lipoamide (setting [1]), 0.208 with lipoamide (arsenate co-treatment: none) and 0.0133 with potassium arsenate.
Regarding ATP5J (UniProt P18859), the thermal stability z-score with lipoamide (setting [1]) was determined as 2.44; with lipoamide (arsenate co-treatment: none), 1.93; with potassium arsenate it was 1.53.
In the case of GINS4 (UniProt Q9BRT9), the thermal stability z-score with lipoamide (setting [1]) is 0.2; with lipoamide (arsenate co-treatment: none), -0.173; in the assay with potassium arsenate, -0.614.
The matching figures for SQSTM1 (UniProt Q13501): -0.226, -0.109 and 0.758.
The matching figures for PSMD2 (UniProt Q13200): -0.29, -0.343 and -0.333.
As to GTF3C2 (UniProt Q8WUA4), the thermal stability z-score is 0.112 with lipoamide (setting [1]), 0.0176 with lipoamide (arsenate co-treatment: none) and -0.411 with potassium arsenate.
Consider RCC1 (UniProt P18754), for which the thermal stability z-score in the assay with lipoamide (setting [1]) was -0.231; with lipoamide (arsenate co-treatment: none), -0.0308; in the assay with potassium arsenate, -0.548.
For the target TMEM9 (UniProt Q9P0T7), the thermal stability z-score in the assay with lipoamide (setting [1]) is -2.36; with lipoamide (arsenate co-treatment: none) it was -2; with potassium arsenate it was -0.267.
On to WASF2 (UniProt Q9Y6W5), for which the figures for the thermal stability z-score with lipoamide (setting [1]), in the assay with lipoamide (arsenate co-treatment: none) and with potassium arsenate were -0.14, -0.155 and -0.206, respectively.
With DYNC1LI2 (UniProt O43237), the results for the thermal stability z-score in the assay with lipoamide (setting [1]), in the assay with lipoamide (arsenate co-treatment: none) and in the assay with potassium arsenate were -0.543, -0.166 and 0.192, respectively.
